Test results as given in patent US6613718B2, “Aryl ether derivatives and processes for their preparation and herbicidal and desiccant compositions containing them” (Ishihara Sangyo Kaisha, Ltd., priority 2001, dated 2003).

How the values were obtained:
Type in all cases: in vivo
Details in all cases: 14 days after application
[1] = test system: upland rice (Oryza sp., var.Tebonnet, RICE); assay: Post-emerge greenhouse screening, crop safety (phytotoxicity rating)
Summary of the method: (§1)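 Plants grown in sandy loam pots received acetone solutions of compound by moving-nozzle track sprayer, 15–1000 g ai/ha. In post-emergence runs the foliage was at the 2-3 leaf stage and spray contained 0.25% v/v non-ionic surfactant. Damage was assessed visually after 14 days (0-100).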

[2] = test system: soybean (Glycine max L., var. Pella 86, SOY); assay: as above
Summary of the method: as §1

[3] = test system: ivyleaf morningglory (Ipomoea hederacea, IPOHE); assay: Pre-emerge greenhouse herbicide activity screening, phytotoxicity rating
Summary of the method: as §1

[4] = test system: large crabgrass (Digitaria sanguinalis, DIGSA); assay: as above
Summary of the method: as §1

[5] = test system: common ragweed (Ambrosia artemisiifolia L., AMBEL); assay: as above
Summary of the method: as §1

[6] = test system: lambsquarters (Chenopodium album, CHEAL); assay: as above
Summary of the method: as §1

[7] = test system: green foxtail (Setaria viridis, SETVI); assay: as above
Summary of the method: as §1

[8] = test system: sicklepod (Cassia obtusifolia, CASOB); assay: as above
Summary of the method: as §1

[9] = test system: redroot pigweed (Amaranthus retroflexus, AMARE); assay: as above
Summary of the method: as §1

[10] = test system: velvetleaf (Abutilon theophrasti, ABUTH); assay: as above
Summary of the method: as §1

[11] = test system: barnyardgrass (Echinochloa crus-galli, ECHCG); assay: as above
Summary of the method: as §1

[12] = test system: johnsongrass (Sorghum halepense, SORHA); assay: as above
Summary of the method: as §1

[13] = test system: ivyleaf morningglory (Ipomoea hederacea, IPOHE); assay: Post-emerge greenhouse herbicide activity screening, phytotoxicity rating
Summary of the method: as §1

[14] = test system: large crabgrass (Digitaria sanguinalis, DIGSA); assay: as above
Summary of the method: as §1

[15] = test system: common ragweed (Ambrosia artemisiifolia L., AMBEL); assay: as above
Summary of the method: as §1

[16] = test system: lambsquarters (Chenopodium album, CHEAL); assay: as above
Summary of the method: as §1

[17] = test system: green foxtail (Setaria viridis, SETVI); assay: as above
Summary of the method: as §1

[18] = test system: sicklepod (Cassia obtusifolia, CASOB); assay: as above
Summary of the method: as §1

[19] = test system: redroot pigweed (Amaranthus retroflexus, AMARE); assay: as above
Summary of the method: as §1

[20] = test system: velvetleaf (Abutilon theophrasti, ABUTH); assay: as above
Summary of the method: as §1

[21] = test system: barnyardgrass (Echinochloa crus-galli, ECHCG); assay: as above
Summary of the method: as §1

[22] = test system: johnsongrass (Sorghum halepense, SORHA); assay: as above
Summary of the method: as §1

[23] = test system: upland rice (Oryza sp., var.Tebonnet, RICE); assay: Pre-emerge greenhouse screening, crop safety (phytotoxicity rating)
Summary of the method: as §1

[24] = test system: soybean (Glycine max L., var. Pella 86, SOY); assay: as above
Summary of the method: as §1

[25] = test system: field corn (Zea mays L., var. Dekalb 535, CORN); assay: as above
Summary of the method: as §1

[26] = test system: field corn (Zea mays L., var. Dekalb 535, CORN); assay: Post-emerge greenhouse screening, crop safety / corn selectivity (phytotoxicity rating)
Summary of the method: as §1

## Cn1c(C(F)(F)F)cc(=O)n(-c2cc(Oc3ccccc3O)c(C#N)cc2F)c1=S [Compound 1-70]
[1]; 125 g ai/ha
  RICE crop damage, phytotoxicity rating (0-100 scale): 0
[1]; 250 g ai/ha
  RICE crop damage, phytotoxicity rating (0-100 scale): 0
[2]; 125 g ai/ha
  SOY crop damage, phytotoxicity rating (0-100 scale): 30
[2]; 250 g ai/ha
  SOY crop damage, phytotoxicity rating (0-100 scale): 65
[3]; 125 g ai/ha
  IPOHE phytotoxicity rating (0-100 scale): 99
[3]; 250 g ai/ha
  IPOHE phytotoxicity rating (0-100 scale): 99
[4]; 125 g ai/ha
  DIGSA phytotoxicity rating (0-100 scale): 85
[4]; 250 g ai/ha
  DIGSA phytotoxicity rating (0-100 scale): 99
[5]; 125 g ai/ha
  AMBEL phytotoxicity rating (0-100 scale): 90
[5]; 250 g ai/ha
  AMBEL phytotoxicity rating (0-100 scale): 99
[6]; 125 g ai/ha
  CHEAL phytotoxicity rating (0-100 scale): 100
[6]; 250 g ai/ha
  CHEAL phytotoxicity rating (0-100 scale): 100
[7]; 125 g ai/ha
  SETVI phytotoxicity rating (0-100 scale): 75
[7]; 250 g ai/ha
  SETVI phytotoxicity rating (0-100 scale): 100
[8]; 125 g ai/ha
  CASOB phytotoxicity rating (0-100 scale): 65
[8]; 250 g ai/ha
  CASOB phytotoxicity rating (0-100 scale): 85
[9]; 125 g ai/ha
  AMARE phytotoxicity rating (0-100 scale): 100
[9]; 250 g ai/ha
  AMARE phytotoxicity rating (0-100 scale): 100
[10]; 125 g ai/ha
  ABUTH phytotoxicity rating (0-100 scale): 100
[10]; 250 g ai/ha
  ABUTH phytotoxicity rating (0-100 scale): 100
[11]; 125 g ai/ha
  ECHCG phytotoxicity rating (0-100 scale): 85
[11]; 250 g ai/ha
  ECHCG phytotoxicity rating (0-100 scale): 95
[12]; 125 g ai/ha
  SORHA phytotoxicity rating (0-100 scale): 65
[12]; 250 g ai/ha
  SORHA phytotoxicity rating (0-100 scale): 99
[13]; 125 g ai/ha
  IPOHE phytotoxicity rating (0-100 scale): 99
[13]; 250 g ai/ha
  IPOHE phytotoxicity rating (0-100 scale): 99
[14]; 125 g ai/ha
  DIGSA phytotoxicity rating (0-100 scale): 15
[14]; 250 g ai/ha
  DIGSA phytotoxicity rating (0-100 scale): 30
[15]; 125 g ai/ha
  AMBEL phytotoxicity rating (0-100 scale): 60
[15]; 250 g ai/ha
  AMBEL phytotoxicity rating (0-100 scale): 65
[16]; 125 g ai/ha
  CHEAL phytotoxicity rating (0-100 scale): 100
[16]; 250 g ai/ha
  CHEAL phytotoxicity rating (0-100 scale): 100
[17]; 125 g ai/ha
  SETVI phytotoxicity rating (0-100 scale): 65
[17]; 250 g ai/ha
  SETVI phytotoxicity rating (0-100 scale): 75
[18]; 125 g ai/ha
  CASOB phytotoxicity rating (0-100 scale): 65
[18]; 250 g ai/ha
  CASOB phytotoxicity rating (0-100 scale): 65
[19]; 125 g ai/ha
  AMARE phytotoxicity rating (0-100 scale): 100
[19]; 250 g ai/ha
  AMARE phytotoxicity rating (0-100 scale): 100
[20]; 125 g ai/ha
  ABUTH phytotoxicity rating (0-100 scale): 100
[20]; 250 g ai/ha
  ABUTH phytotoxicity rating (0-100 scale): 100
[21]; 125 g ai/ha
  ECHCG phytotoxicity rating (0-100 scale): 55
[21]; 250 g ai/ha
  ECHCG phytotoxicity rating (0-100 scale): 80
[22]; 125 g ai/ha
  SORHA phytotoxicity rating (0-100 scale): 0
[22]; 250 g ai/ha
  SORHA phytotoxicity rating (0-100 scale): 25
[23]; 125 g ai/ha
  RICE crop damage, phytotoxicity rating (0-100 scale): 50
[23]; 250 g ai/ha
  RICE crop damage, phytotoxicity rating (0-100 scale): 55
[24]; 125 g ai/ha
  SOY crop damage, phytotoxicity rating (0-100 scale): 30
[24]; 250 g ai/ha
  SOY crop damage, phytotoxicity rating (0-100 scale): 80
[25]; 125 g ai/ha
  CORN crop damage, phytotoxicity rating (0-100 scale): 15
[25]; 250 g ai/ha
  CORN crop damage, phytotoxicity rating (0-100 scale): 15
[26]; 125 g ai/ha
  CORN crop damage, phytotoxicity rating (0-100 scale): 0
[26]; 250 g ai/ha
  CORN crop damage, phytotoxicity rating (0-100 scale): 0

## COc1ccccc1Oc1cc(-n2c(=O)cc(C(F)(F)F)n(C)c2=S)c(F)cc1C#N [Compound 1-71]
[1]; 125 g ai/ha
  RICE crop damage, phytotoxicity rating (0-100 scale): 0
[1]; 250 g ai/ha
  RICE crop damage, phytotoxicity rating (0-100 scale): 0
[2]; 125 g ai/ha
  SOY crop damage, phytotoxicity rating (0-100 scale): 50
[2]; 250 g ai/ha
  SOY crop damage, phytotoxicity rating (0-100 scale): 75
[3]; 125 g ai/ha
  IPOHE phytotoxicity rating (0-100 scale): 100
[3]; 250 g ai/ha
  IPOHE phytotoxicity rating (0-100 scale): 100
[4]; 125 g ai/ha
  DIGSA phytotoxicity rating (0-100 scale): 100
[4]; 250 g ai/ha
  DIGSA phytotoxicity rating (0-100 scale): 100
[5]; 125 g ai/ha
  AMBEL phytotoxicity rating (0-100 scale): 100
[5]; 250 g ai/ha
  AMBEL phytotoxicity rating (0-100 scale): 100
[6]; 125 g ai/ha
  CHEAL phytotoxicity rating (0-100 scale): 100
[6]; 250 g ai/ha
  CHEAL phytotoxicity rating (0-100 scale): 100
[7]; 125 g ai/ha
  SETVI phytotoxicity rating (0-100 scale): 100
[7]; 250 g ai/ha
  SETVI phytotoxicity rating (0-100 scale): 100
[8]; 125 g ai/ha
  CASOB phytotoxicity rating (0-100 scale): 95
[8]; 250 g ai/ha
  CASOB phytotoxicity rating (0-100 scale): 100
[9]; 125 g ai/ha
  AMARE phytotoxicity rating (0-100 scale): 100
[9]; 250 g ai/ha
  AMARE phytotoxicity rating (0-100 scale): 100
[10]; 125 g ai/ha
  ABUTH phytotoxicity rating (0-100 scale): 100
[10]; 250 g ai/ha
  ABUTH phytotoxicity rating (0-100 scale): 100
[11]; 125 g ai/ha
  ECHCG phytotoxicity rating (0-100 scale): 100
[11]; 250 g ai/ha
  ECHCG phytotoxicity rating (0-100 scale): 100
[12]; 125 g ai/ha
  SORHA phytotoxicity rating (0-100 scale): 99
[12]; 250 g ai/ha
  SORHA phytotoxicity rating (0-100 scale): 100
[13]; 125 g ai/ha
  IPOHE phytotoxicity rating (0-100 scale): 100
[13]; 250 g ai/ha
  IPOHE phytotoxicity rating (0-100 scale): 100
[14]; 125 g ai/ha
  DIGSA phytotoxicity rating (0-100 scale): 50
[14]; 250 g ai/ha
  DIGSA phytotoxicity rating (0-100 scale): 60
[15]; 125 g ai/ha
  AMBEL phytotoxicity rating (0-100 scale): 80
[15]; 250 g ai/ha
  AMBEL phytotoxicity rating (0-100 scale): 90
[16]; 125 g ai/ha
  CHEAL phytotoxicity rating (0-100 scale): 100
[16]; 250 g ai/ha
  CHEAL phytotoxicity rating (0-100 scale): 100
[17]; 125 g ai/ha
  SETVI phytotoxicity rating (0-100 scale): 85
[17]; 250 g ai/ha
  SETVI phytotoxicity rating (0-100 scale): 85
[18]; 125 g ai/ha
  CASOB phytotoxicity rating (0-100 scale): 50
[18]; 250 g ai/ha
  CASOB phytotoxicity rating (0-100 scale): 50
[19]; 125 g ai/ha
  AMARE phytotoxicity rating (0-100 scale): 100
[19]; 250 g ai/ha
  AMARE phytotoxicity rating (0-100 scale): 100
[20]; 125 g ai/ha
  ABUTH phytotoxicity rating (0-100 scale): 100
[20]; 250 g ai/ha
  ABUTH phytotoxicity rating (0-100 scale): 100
[21]; 125 g ai/ha
  ECHCG phytotoxicity rating (0-100 scale): 35
[21]; 250 g ai/ha
  ECHCG phytotoxicity rating (0-100 scale): 65
[22]; 125 g ai/ha
  SORHA phytotoxicity rating (0-100 scale): 0
[22]; 250 g ai/ha
  SORHA phytotoxicity rating (0-100 scale): 15
[23]; 125 g ai/ha
  RICE crop damage, phytotoxicity rating (0-100 scale): 50
[23]; 250 g ai/ha
  RICE crop damage, phytotoxicity rating (0-100 scale): 65
[24]; 125 g ai/ha
  SOY crop damage, phytotoxicity rating (0-100 scale): 45
[24]; 250 g ai/ha
  SOY crop damage, phytotoxicity rating (0-100 scale): 60
[25]; 125 g ai/ha
  CORN crop damage, phytotoxicity rating (0-100 scale): 0
[25]; 250 g ai/ha
  CORN crop damage, phytotoxicity rating (0-100 scale): 5
[26]; 125 g ai/ha
  CORN crop damage, phytotoxicity rating (0-100 scale): 0
[26]; 250 g ai/ha
  CORN crop damage, phytotoxicity rating (0-100 scale): 0
